Patent US10494332B2, “Protein tyrosine phosphatases or SHP2 inhibitors and uses thereof” (Indiana University Research and Technology Corporation, priority 2015, dated 2019)

Assays:
Type in all cases: biochemical
[1] = target: T1, Laforin (Homo sapiens, UniProt O95278); test: PTP inhibition assay (pNPP); conditions: for IC50: pNPP at Km, pH 7.0, 25° C., read-out: IC50 Laforin
T1 sequence (O95278 1-331): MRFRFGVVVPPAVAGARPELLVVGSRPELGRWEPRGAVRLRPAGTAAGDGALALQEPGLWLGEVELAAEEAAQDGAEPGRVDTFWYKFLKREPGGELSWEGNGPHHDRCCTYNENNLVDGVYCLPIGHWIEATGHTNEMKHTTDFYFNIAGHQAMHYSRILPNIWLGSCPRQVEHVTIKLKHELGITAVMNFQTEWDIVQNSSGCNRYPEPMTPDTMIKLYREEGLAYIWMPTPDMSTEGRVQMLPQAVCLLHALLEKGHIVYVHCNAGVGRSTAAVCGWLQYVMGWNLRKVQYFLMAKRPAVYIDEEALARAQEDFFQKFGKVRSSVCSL

[2] = target: T2, PTP1B (Homo sapiens, UniProt P18031); test: PTP inhibition assay (pNPP); conditions: pNPP at Km, pH 7.0, 25° C.
T2 sequence (P18031 1-435): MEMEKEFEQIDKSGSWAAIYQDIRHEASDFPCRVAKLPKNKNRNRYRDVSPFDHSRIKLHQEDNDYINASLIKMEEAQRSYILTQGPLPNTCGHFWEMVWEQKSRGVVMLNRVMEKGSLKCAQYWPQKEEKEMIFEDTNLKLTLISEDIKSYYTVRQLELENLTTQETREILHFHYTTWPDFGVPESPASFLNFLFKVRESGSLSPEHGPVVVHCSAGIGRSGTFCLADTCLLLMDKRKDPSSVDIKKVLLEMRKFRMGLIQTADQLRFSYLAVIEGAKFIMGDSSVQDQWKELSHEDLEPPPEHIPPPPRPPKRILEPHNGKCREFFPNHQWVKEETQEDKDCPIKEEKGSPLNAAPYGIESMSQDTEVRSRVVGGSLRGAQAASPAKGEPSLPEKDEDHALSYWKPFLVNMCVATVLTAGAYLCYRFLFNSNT

[3] = target: T3, LYP (Homo sapiens, UniProt Q9Y2R2); test: PTP inhibition assay (pNPP); conditions: pNPP at Km, pH 7.0, 25° C.
T3 sequence (Q9Y2R2 1-807): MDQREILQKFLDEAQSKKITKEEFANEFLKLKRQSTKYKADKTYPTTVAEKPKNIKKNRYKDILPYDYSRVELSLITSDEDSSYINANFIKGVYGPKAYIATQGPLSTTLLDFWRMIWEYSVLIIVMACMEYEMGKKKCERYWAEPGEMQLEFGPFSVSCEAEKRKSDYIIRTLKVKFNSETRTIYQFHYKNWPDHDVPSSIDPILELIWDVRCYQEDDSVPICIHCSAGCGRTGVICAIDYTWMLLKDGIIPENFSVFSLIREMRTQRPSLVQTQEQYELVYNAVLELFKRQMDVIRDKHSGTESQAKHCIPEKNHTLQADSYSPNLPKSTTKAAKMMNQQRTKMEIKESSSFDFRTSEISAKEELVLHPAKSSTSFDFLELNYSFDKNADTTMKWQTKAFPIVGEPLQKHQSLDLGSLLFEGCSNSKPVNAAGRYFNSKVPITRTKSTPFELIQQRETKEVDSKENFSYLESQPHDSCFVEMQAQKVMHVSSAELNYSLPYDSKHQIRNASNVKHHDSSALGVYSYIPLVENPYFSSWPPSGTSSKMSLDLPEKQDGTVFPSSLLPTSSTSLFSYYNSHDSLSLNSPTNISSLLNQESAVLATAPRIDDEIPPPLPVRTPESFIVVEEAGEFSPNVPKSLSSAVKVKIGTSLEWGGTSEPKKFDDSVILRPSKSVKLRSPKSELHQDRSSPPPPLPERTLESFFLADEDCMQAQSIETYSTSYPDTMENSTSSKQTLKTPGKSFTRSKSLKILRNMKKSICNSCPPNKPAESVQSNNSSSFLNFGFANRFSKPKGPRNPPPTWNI

[4] = target: T4, SHP2 (Homo sapiens, UniProt Q06124); test: SHP2 phosphatase inhibition assay (pNPP); conditions: pNPP at Km, pH 7.0, 25° C.; read-out: IC50 SHP2
T4 sequence (Q06124 224-528): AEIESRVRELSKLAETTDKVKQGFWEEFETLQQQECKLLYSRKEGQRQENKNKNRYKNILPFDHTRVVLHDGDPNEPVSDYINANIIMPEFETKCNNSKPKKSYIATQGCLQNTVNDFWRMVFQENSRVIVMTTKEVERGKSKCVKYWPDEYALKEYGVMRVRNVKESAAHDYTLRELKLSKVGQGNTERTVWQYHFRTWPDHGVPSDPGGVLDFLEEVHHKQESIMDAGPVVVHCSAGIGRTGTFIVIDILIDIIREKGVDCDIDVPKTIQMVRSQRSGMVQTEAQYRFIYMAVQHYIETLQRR

[5] = target: T5, CD45 (Homo sapiens, UniProt P08575); test: PTP inhibition assay (pNPP); conditions: pNPP at Km, pH 7.0, 25° C.
T5 sequence (P08575 26-1306): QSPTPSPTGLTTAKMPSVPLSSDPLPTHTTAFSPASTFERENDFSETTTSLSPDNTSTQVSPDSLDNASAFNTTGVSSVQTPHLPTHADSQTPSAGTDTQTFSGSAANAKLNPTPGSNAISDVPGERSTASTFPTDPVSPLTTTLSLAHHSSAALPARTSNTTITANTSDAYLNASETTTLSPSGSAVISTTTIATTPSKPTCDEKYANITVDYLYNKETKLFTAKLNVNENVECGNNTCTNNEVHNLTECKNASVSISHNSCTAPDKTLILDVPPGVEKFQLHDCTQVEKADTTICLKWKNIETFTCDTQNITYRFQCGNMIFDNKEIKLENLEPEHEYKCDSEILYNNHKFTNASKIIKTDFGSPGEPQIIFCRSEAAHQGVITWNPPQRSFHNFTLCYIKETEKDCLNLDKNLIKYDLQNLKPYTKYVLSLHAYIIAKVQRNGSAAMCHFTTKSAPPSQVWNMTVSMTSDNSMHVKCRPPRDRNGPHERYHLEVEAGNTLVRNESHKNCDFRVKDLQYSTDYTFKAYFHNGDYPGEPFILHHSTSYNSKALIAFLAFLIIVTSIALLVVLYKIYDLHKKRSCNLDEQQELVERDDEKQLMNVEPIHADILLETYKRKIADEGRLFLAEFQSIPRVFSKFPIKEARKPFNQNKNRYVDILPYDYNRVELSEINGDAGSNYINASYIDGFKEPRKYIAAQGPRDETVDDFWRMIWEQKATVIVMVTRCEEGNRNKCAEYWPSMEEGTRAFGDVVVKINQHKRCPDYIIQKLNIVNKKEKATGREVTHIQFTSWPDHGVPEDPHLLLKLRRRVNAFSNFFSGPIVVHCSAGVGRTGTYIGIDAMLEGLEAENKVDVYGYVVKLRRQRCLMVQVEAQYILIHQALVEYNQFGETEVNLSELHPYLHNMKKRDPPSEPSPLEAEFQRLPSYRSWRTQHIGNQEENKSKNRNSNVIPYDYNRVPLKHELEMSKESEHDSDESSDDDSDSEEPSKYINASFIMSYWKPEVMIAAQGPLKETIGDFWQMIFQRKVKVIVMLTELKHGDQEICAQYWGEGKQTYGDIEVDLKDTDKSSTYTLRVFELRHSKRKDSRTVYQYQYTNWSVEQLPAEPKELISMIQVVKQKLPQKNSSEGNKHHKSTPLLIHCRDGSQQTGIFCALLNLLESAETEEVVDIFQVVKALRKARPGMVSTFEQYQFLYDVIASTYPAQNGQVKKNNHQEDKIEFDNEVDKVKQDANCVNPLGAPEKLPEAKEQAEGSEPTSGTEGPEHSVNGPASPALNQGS

[6] = target: T6, LMWPTP (Homo sapiens, UniProt P24666); test: PTP inhibition assay (pNPP); conditions: pNPP at Km, pH 7.0, 25° C.
T6 sequence (P24666 1-158): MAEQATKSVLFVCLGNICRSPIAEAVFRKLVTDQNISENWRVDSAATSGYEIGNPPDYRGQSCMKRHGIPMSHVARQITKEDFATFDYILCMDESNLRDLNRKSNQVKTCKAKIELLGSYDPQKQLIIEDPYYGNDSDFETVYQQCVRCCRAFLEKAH

| SMILES | IC50 [1] [µM] | IC50 [2] [µM] | IC50 [3] [µM] | IC50 [4] [µM] | IC50 [5] [µM] | IC50 [6] [µM] | Inhibition of Laforin at 100 μM ([1]; 100 μM) | Inhibition of Laforin at 200 μM ([1]; 200 μM) |
| --- | --- | --- | --- | --- | --- | --- | --- | --- |
| O=C(Nc1nccs1)C(c1ccccc1)S(=O)(=O)O (centres unmarked) [Compound L319N13] | 8 | > 100 | > 100 | > 100 | > 100 | – | – | – |
| O=C(Nc1nc(-c2ccccc2)cs1)C(c1ccccc1)S(=O)(=O)O (centres unmarked) [Compound L319N14] | 6 | 160 | 15 | 31 | 70 | 20 | – | – |
| O=C(Nc1nc2c(Cl)cccc2s1)C(c1ccccc1)S(=O)(=O)O (centres unmarked) [Compound L319N15-01] | 2.2 | 70 | 22 | 41 | – | 4.6 | – | – |
| Cc1cccc2sc(NC(=O)C(c3ccccc3)S(=O)(=O)O)nc12 (centres unmarked) [Compound L319N15-02] | 4 | > 200 | 110 | 129 | > 200 | 9.6 | – | – |
| COc1cccc2sc(NC(=O)C(c3ccccc3)S(=O)(=O)O)nc12 (centres unmarked) [Compound L319N15-03] | 1.2 | > 200 | > 200 | > 200 | > 200 | 7.6 | – | – |
| Cc1cc2nc(NC(=O)C(c3ccccc3)S(=O)(=O)O)sc2cc1C (centres unmarked) [Compound L319N15-04] | 1.1 | > 200 | 90 | 112 | > 200 | 4.8 | – | – |
| O=C(Nc1nc2ccc(F)cc2s1)C(c1ccccc1)S(=O)(=O)O (centres unmarked) [Compound L319N15-05] | 1.7 | > 200 | 150 | 173 | > 200 | 4.2 | – | – |
| O=C(Nc1nc2ccc(Cl)cc2s1)C(c1ccccc1)S(=O)(=O)O (centres unmarked) [Compound L319N15-06] | 2.3 | 80 | 23 | 30 | 130 | 5.6 | – | – |
| O=C(Nc1nc2ccc(O[N+](=O)[O-])cc2s1)C(c1ccccc1)S(=O)(=O)O (centres unmarked) [Compound L319N15-07] | > 200 | > 200 | > 100 | > 200 | > 200 | 2.1 | no detectable inhibition | – |
| Cc1ccc2nc(NC(=O)C(c3ccccc3)S(=O)(=O)O)sc2c1 (centres unmarked) [Compound L319N15-08] | 2 | > 200 | > 200 | > 200 | > 200 | 8.2 | – | – |
| O=C(Nc1nc2ccc(OC(F)(F)F)cc2s1)C(c1ccccc1)S(=O)(=O)O (centres unmarked) [Compound L319N15-09] | 3.2 | 160 | 20 | 47 | 80 | 5.3 | – | – |
| COc1ccc2nc(NC(=O)C(c3ccccc3)S(=O)(=O)O)sc2c1 (centres unmarked) [Compound L319N15-10] | 2.1 | > 200 | > 200 | > 200 | > 200 | 5.8 | – | – |
| CCOC(=O)c1ccc2nc(NC(=O)C(c3ccccc3)S(=O)(=O)O)sc2c1 (centres unmarked) [Compound L319N15-11] | 1.7 | – | 28 | 55 | 70 | 3.03 | – | – |
| Nc1ccc2nc(NC(=O)C(c3ccccc3)S(=O)(=O)O)sc2c1 (centres unmarked) [Compound L319N15-12] | 3.3 | > 200 | 166 | 190 | 160 | 14 | – | – |
| O=C(O)c1ccc2nc(NC(=O)C(c3ccccc3)S(=O)(=O)O)sc2c1 (centres unmarked) [Compound L319N15-13] | > 200 | > 200 | 31 | 83 | 90 | 70 | – | did not inhibit |
| O=C(Nc1nc2ccccc2s1)C(c1ccc(Br)cc1)S(=O)(=O)O (centres unmarked) [Compound L319N15-14] | 19 | > 200 | > 200 | > 200 | > 200 | > 200 | – | – |
| O=C(Nc1nc2ccccc2s1)C(c1ccc([N+](=O)[O-])cc1)S(=O)(=O)O (centres unmarked) [Compound L319N15-16] | 66 | > 200 | 180 | 135 | > 200 | > 200 | – | – |
| O=C(Nc1nc2ccccc2s1)C(c1ccccc1F)S(=O)(=O)O (centres unmarked) [Compound L319N15-17] | 14 | > 100 | > 100 | > 100 | > 100 | > 100 | – | – |
